Common to all, as to type: in vivo
In one assay the test system is Alternaria solani. Put plainly: Test F: tomato early blight, preventive spray on tomato seedlings. Conditions: 50 ppm, 100 = 100% disease control, 0 = no control. An excerpt:
(§1) General protocol for preparing test suspensions for Tests A-F: the test compounds were first dissolved in acetone in an amount equal to 3% of the final volume and then suspended at the desired concentration (in ppm) in acetone and purified water (50/50 mix by volume) containing 250 ppm of the surfactant PEG400 (polyhydric alcohol esters). The resulting test suspensions were then used in Tests A-F. The test suspension was sprayed to the point of run-off on tomato seedlings. The following day the seedlings were inoculated with a spore suspension of Alternaria solani (the causal agent of tomato early blight) and incubated in a saturated atmosphere at 27° C. for 48 h, and then moved to a growth chamber at 20° C. for 3 days, after which time visual disease ratings were made. A rating of 100 indicates 100% disease control and a rating of 0 indicates no disease control (relative to the controls). A dash (-) indicates the compound was not tested.

Assay [1] relates to Puccinia recondita f. sp. tritici. As to the kind of experiment: Test B: wheat leaf rust, preventive spray on wheat seedlings. As to conditions: 50 ppm, 100 = 100% disease control, 0 = no control relative to controls. An excerpt: General protocol for preparing test suspensions for Tests A-F: the test compounds were first dissolved in acetone in an amount equal to 3% of the final volume and then suspended at the desired concentration (in ppm) in acetone and purified water (50/50 mix by volume) containing 250 ppm of the surfactant PEG400 (polyhydric alcohol esters). The resulting test suspensions were then used in Tests A-F. The test solution was sprayed to the point of run-off on wheat seedlings. The following day the seedlings were inoculated with a spore suspension of Puccinia recondita f. sp. tritici (the causal agent of wheat leaf rust) and incubated in a saturated atmosphere at 20° C. for 24 h, and then moved to a growth chamber at 20° C. for 7 days, after which time disease ratings were made. A rating of 100 indicates 100% disease control and a rating of 0 indicates no disease control (relative to the controls). A dash (-) indicates the compound was not tested.

In another assay the test system is Botrytis cinerea. Put plainly: Test E: tomato Botrytis, preventive spray on tomato seedlings. As to conditions: 50 ppm, 100 = 100% disease control, 0 = no control.
Excerpt: as §1, with “Botrytis cinerea” for “Alternaria solani”, “Botrytis)” for “early blight)”, “20°” for “27°”, “24°” for “20°”

A further assay relates to Septoria tritici. Put plainly: Test A: wheat leaf blotch, preventive spray on wheat seedlings. As to conditions: 50 ppm, 100 = 100% disease control, 0 = no control relative to controls. An excerpt:
General protocol for preparing test suspensions for Tests A-F: the test compounds were first dissolved in acetone in an amount equal to 3% of the final volume and then suspended at the desired concentration (in ppm) in acetone and purified water (50/50 mix by volume) containing 250 ppm of the surfactant PEG400 (polyhydric alcohol esters). The resulting test suspensions were then used in Tests A-F. The test solution was sprayed to the point of run-off on wheat seedlings. The following day the seedlings were inoculated with a spore suspension of Septoria tritici (the causal agent of wheat leaf blotch) and incubated in a saturated atmosphere at 24° C. for 48 h, and then moved to a growth chamber at 20° C. for 17 days, after which time disease ratings were made. A rating of 100 indicates 100% disease control and a rating of 0 indicates no disease control (relative to the controls). A dash (-) indicates the compound was not tested.

Another assay has as its system Phakopsora pachyrhizi. As to the kind of experiment: Test D: Asian soybean rust, preventive spray on soybean seedlings. Conditions: 50 ppm, 100 = 100% disease control, 0 = no control. An excerpt: General protocol for preparing test suspensions for Tests A-F: the test compounds were first dissolved in acetone in an amount equal to 3% of the final volume and then suspended at the desired concentration (in ppm) in acetone and purified water (50/50 mix by volume) containing 250 ppm of the surfactant PEG400 (polyhydric alcohol esters). The resulting test suspensions were then used in Tests A-F.
The test solution was sprayed to the point of run-off on soybean seedlings. The following day the seedlings were inoculated with a spore suspension of Phakopsora pachyrhizi (the causal agent of Asian soybean rust) and incubated in a saturated atmosphere at 22° C. for 24 h and then moved to a growth chamber at 22° C. for 8 days, after which time visual disease ratings were made.
A rating of 100 indicates 100% disease control and a rating of 0 indicates no disease control (relative to the controls). A dash (-) indicates the compound was not tested.

The test system of assay [2] is Blumeria graminis f. sp. tritici. Put plainly: Test C: wheat powdery mildew, preventive spray on wheat seedlings. As to conditions: 50 ppm, rated after 8 days, 100 = 100% disease control, 0 = no control. The text has this:
General protocol for preparing test suspensions for Tests A-F: the test compounds were first dissolved in acetone in an amount equal to 3% of the final volume and then suspended at the desired concentration (in ppm) in acetone and purified water (50/50 mix by volume) containing 250 ppm of the surfactant PEG400 (polyhydric alcohol esters). The resulting test suspensions were then used in Tests A-F. The test suspension was sprayed to the point of run-off on wheat seedlings. The following day the seedlings were inoculated with a spore dust of Blumeria graminis f. sp. tritici, (also known as Erysiphe graminis f. sp. tritici, the causal agent of wheat powdery mildew) and incubated in a growth chamber at 20° C. for 8 days, after which time visual disease ratings were made. A rating of 100 indicates 100% disease control and a rating of 0 indicates no disease control (relative to the controls). A dash (-) indicates the compound was not tested.

With `Cc1nn(C)c(Nc2c(F)cc(Br)cc2[N+](=O)[O-])c1-c1ccc(Cl)cc1Cl` [Compound 132], the “Test F disease control rating (tomato early blight)” value (from here on “Test F disease control rating”) with Alternaria solani is on record as 96%. The “Test B disease control rating (wheat leaf rust)” value (from here on “Test B disease control rating”) in assay [1] is given as 98%. In addition, in the assay on Botrytis cinerea, the “Test E disease control rating (tomato Botrytis)” value (from here on “Test E disease control rating”) is given as 99%. Besides, in the assay on Septoria tritici, the “Test A disease control rating (wheat leaf blotch)” value (from here on “Test A disease control rating”) was found to be 100%. Moreover, in the assay with Phakopsora pachyrhizi, the “Test D disease control rating (Asian soybean rust)” value (from here on “Test D disease control rating”) turned out to be 0%. Further, in assay [2], the “Test C disease control rating (wheat powdery mildew)” value (“Test C disease control rating” below) is reported as 47%.
As to `COc1ccc(-c2c(C)nn(C)c2Nc2c(Cl)cccc2[N+](=O)[O-])c(Cl)c1` [Compound 184], in the assay on Alternaria solani, the “Test F disease control rating” value was determined as 26%. Also, in assay [1], the “Test B disease control rating” value is recorded as 100%. Further, the “Test E disease control rating” value with Botrytis cinerea was determined as 100%. The “Test A disease control rating” value with Septoria tritici amounted to 100%. Also, in the assay with Phakopsora pachyrhizi, the “Test D disease control rating” value is given as 0%. For the same compound, the “Test C disease control rating” value in assay [2] amounted to 21%.
On to `Cc1ccc(Nc2c(-c3ccc(F)cc3Br)c(C)nn2C)c([N+](=O)[O-])c1` [Compound 90], for which the “Test F disease control rating” value in the assay with Alternaria solani was determined as 9%. In addition, the “Test B disease control rating” value in assay [1] came to 95%. Moreover, in the assay with Botrytis cinerea, the “Test E disease control rating” value is 99%. Also, in the assay on Septoria tritici, the “Test A disease control rating” value was 100%. For the same compound, in the assay with Phakopsora pachyrhizi, the “Test D disease control rating” value was determined as 0%. Moreover, the “Test C disease control rating” value in assay [2] was 87%.
Take `Cc1nn(C)c(Nc2c(Cl)cc(Cl)cc2[N+](=O)[O-])c1-c1ccc(F)cc1Br` [Compound 37]: in the assay with Alternaria solani, the “Test F disease control rating” value worked out at 78%. Moreover, the “Test B disease control rating” value in assay [1] is 100%. Moreover, in the assay with Botrytis cinerea, the “Test E disease control rating” value stood at 88%. Also, the “Test A disease control rating” value with Septoria tritici was determined as 100%. The “Test D disease control rating” value with Phakopsora pachyrhizi is given as 0%. For the same compound, in assay [2], the “Test C disease control rating” value came to 98%.
On to `Cc1nn(C)c(Nc2c(Cl)cccc2[N+](=O)[O-])c1-c1c(F)cccc1F` [Compound 77], for which, in the assay on Alternaria solani, the “Test F disease control rating” value is 9%. In addition, in assay [1], the “Test B disease control rating” value came to 100%. In the assay with Botrytis cinerea, the “Test E disease control rating” value is recorded as 72%. Besides, the “Test A disease control rating” value in the assay with Septoria tritici was 100%. Also, the “Test D disease control rating” value with Phakopsora pachyrhizi worked out at 73%. For the same compound, the “Test C disease control rating” value in assay [2] is reported as 95%.
With `COc1cc(F)c(Nc2c(-c3ccc(F)cc3F)c(C)nn2C)c([N+](=O)[O-])c1` [Compound 57, 4-(2,4-difluorophenyl)-N-(2-fluoro-4-methoxy-6-nitrophenyl)-1,3-dimethyl-1H-pyrazol-5-amine], the pest or weed control at 50 ppm with Alternaria solani (Alternaria solani, read-out: Test F disease control rating (tomato early blight)) was 100%; in assay [1] (read-out: Test B disease control rating (wheat leaf rust)), 100%; in the assay on Botrytis cinerea (Botrytis cinerea, read-out: Test E disease control rating (tomato Botrytis)) it was 100%; in the assay with Septoria tritici (Zymoseptoria tritici, read-out: Test A disease control rating (wheat leaf blotch)), 100%; in the assay with Phakopsora pachyrhizi (Phakopsora pachyrhizi, read-out: Test D disease control rating (Asian soybean rust)), 96%; in assay [2] (Blumeria graminis, 192 h, read-out: Test C disease control rating (wheat powdery mildew)), 100%.
For the compound `Cc1nn(C)c(Nc2ccc(F)cc2[N+](=O)[O-])c1-c1ccc(F)cc1Br` [Compound 20], in the assay with Alternaria solani, the “Test F disease control rating” value turned out to be 26%. For the same compound, the “Test B disease control rating” value in assay [1] was 89%. In addition, the “Test E disease control rating” value in the assay with Botrytis cinerea is listed as 99%. Besides, in the assay on Septoria tritici, the “Test A disease control rating” value was 100%. In addition, in the assay on Phakopsora pachyrhizi, the “Test D disease control rating” value came out at 0%. Besides, the “Test C disease control rating” value in assay [2] is 92%.
Take `Cc1nn(C)c(Nc2ccc(OC(C)C)cc2[N+](=O)[O-])c1-c1ccc(F)cc1Cl` [Compound 104]: the “Test F disease control rating” value in the assay with Alternaria solani was 0%. Moreover, the “Test B disease control rating” value in assay [1] is 0%. The “Test E disease control rating” value in the assay with Botrytis cinerea was determined as 0%. Also, the “Test A disease control rating” value with Septoria tritici is recorded as 60%. Also, the “Test D disease control rating” value with Phakopsora pachyrhizi was 0%. The “Test C disease control rating” value in assay [2] was found to be 72%.
For `Cc1nn(C)c(Nc2cc(Cl)ccc2[N+](=O)[O-])c1-c1ccc(F)cc1Cl` [Compound 130], the “Test F disease control rating” value with Alternaria solani is recorded as 0%. For the same compound, in assay [1], the “Test B disease control rating” value stood at 86%. For the same compound, the “Test E disease control rating” value in the assay with Botrytis cinerea was 85%. Also, the “Test A disease control rating” value in the assay with Septoria tritici is listed as 85%. Further, the “Test D disease control rating” value in the assay on Phakopsora pachyrhizi is 0%. For the same compound, the “Test C disease control rating” value in assay [2] was 20%.
With `Cc1cc(Cl)c(Nc2c(-c3ccc(Cl)cc3Cl)c(C)nn2C)c([N+](=O)[O-])c1` [Compound 145], the “Test F disease control rating” value with Alternaria solani was determined as 24%. For the same compound, in assay [1], the “Test B disease control rating” value is given as 92%. In addition, the “Test E disease control rating” value in the assay on Botrytis cinerea is given as 85%. The “Test A disease control rating” value in the assay on Septoria tritici turned out to be 98%. Besides, the “Test D disease control rating” value with Phakopsora pachyrhizi stood at 0%. Further, the “Test C disease control rating” value in assay [2] is listed as 52%.
Regarding `COc1cc(F)c(Nc2c(-c3ccc(F)cc3Cl)c(C)nn2C)c([N+](=O)[O-])c1` [Compound 85], the “Test F disease control rating” value in the assay on Alternaria solani is recorded as 98%. The “Test B disease control rating” value in assay [1] is reported as 100%. The “Test E disease control rating” value with Botrytis cinerea came out at 94%. For the same compound, in the assay with Septoria tritici, the “Test A disease control rating” value turned out to be 100%. For the same compound, the “Test D disease control rating” value in the assay on Phakopsora pachyrhizi was determined as 96%. Besides, in assay [2], the “Test C disease control rating” value worked out at 97%.
With `Cc1cccc([N+](=O)[O-])c1Nc1c(-c2c(F)cc(F)cc2F)c(C)nn1C` [Compound 167], the “Test F disease control rating” value with Alternaria solani turned out to be 98%. The “Test B disease control rating” value in assay [1] came to 100%. Moreover, in the assay with Botrytis cinerea, the “Test E disease control rating” value is recorded as 95%. Further, the “Test A disease control rating” value in the assay with Septoria tritici came to 100%. Also, the “Test D disease control rating” value in the assay with Phakopsora pachyrhizi is on record as 65%. Also, in assay [2], the “Test C disease control rating” value turned out to be 98%.

The values above are taken from US12398107B2, “Fungicidal nitroanilino substituted pyrazoles” (FMC Corporation, priority 2018, dated 2025).
